We go through 24 compounds from PubChem BioAssay AID256 (DTP/NCI, 2004).

Several values for one entry are separate records, joined by “and”; a condition that tells them apart may be missing. Equal entries are not always repeated. Toxic doses and inconclusive results are not listed.

The subject of this experiment is CD2F1 mice, L1210 leukemia ip, survival T/C. As to the kind of experiment: NCI In Vivo Anticancer Drug Screen. Data for tumor model L1210 Leukemia (intraperitoneal) in CD2F1 (CDF1) mice. As to conditions: endpoint: mean survival time, higher = longer survival. The essentials: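 Each value reflects a quotient of treated over vehicle control outcomes in mice with a transplanted tumor.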

The mark [1] stands for this setting: dose: 100.0 mg/kg/injection, schedule: Q01DX009 (ip), vehicle: saline with Tween-80.
The mark [2] stands for this setting: dose: 100.0 mg/kg/injection, schedule: Q04DX003 (ip), vehicle: saline.
Where [3] appears, read: dose: 200.0 mg/kg/injection, schedule: Q01DX009 (ip), vehicle: saline with Tween-80.
[4] abbreviates: dose: 200.0 mg/kg/injection, schedule: Q04DX003 (ip), vehicle: saline.
Setting [5] is: dose: 400.0 mg/kg/injection, schedule: Q01DX009 (ip), vehicle: saline with Tween-80.
Setting [6] is: dose: 400.0 mg/kg/injection, schedule: Q04DX003 (ip), vehicle: saline.
[7] abbreviates: dose: 100.0 mg/kg/injection, schedule: Q04DX003 (ip), vehicle: saline with Tween-80.
The mark [8] stands for this setting: dose: 200.0 mg/kg/injection, schedule: Q04DX003 (ip), vehicle: saline with Tween-80.
The mark [9] stands for this setting: dose: 400.0 mg/kg/injection, schedule: Q04DX003 (ip), vehicle: saline with Tween-80.
Where [10] appears, read: dose: 100.0 mg/kg/injection, schedule: Q01DX001 (ip), vehicle: saline with Tween-80.
Where [11] appears, read: dose: 100.0 mg/kg/injection, schedule: Q04DX002 (ip), vehicle: saline with Tween-80.
Setting [12] is: dose: 200.0 mg/kg/injection, schedule: Q01DX001 (ip), vehicle: saline with Tween-80.
Setting [13] is: dose: 200.0 mg/kg/injection, schedule: Q04DX002 (ip), vehicle: saline with Tween-80.
[14] abbreviates: dose: 400.0 mg/kg/injection, schedule: Q04DX002 (ip), vehicle: saline with Tween-80.
Setting [15] is: dose: 75.0 mg/kg/injection, schedule: Q01DX001 (ip), vehicle: saline.
Setting [16] is: dose: 150.0 mg/kg/injection, schedule: Q01DX001 (ip), vehicle: saline.
The mark [17] stands for this setting: dose: 300.0 mg/kg/injection, schedule: Q01DX001 (ip), vehicle: saline.
[18] abbreviates: dose: 50.0 mg/kg/injection, schedule: Q04DX003 (ip), vehicle: saline with Tween-80.

As to `CCCCCCCC/C=C/CCCCCCCCCCCCBr`, the T/C was 104 % of control under setting [1]; 98 % of control under setting [2]; 93 % of control under setting [3]; 97 % of control under setting [4]; 103 % of control under setting [5]; 92 % of control under setting [6].

With `CC(C)CC(NC(=O)c1ccccc1)C(=O)O` (stereo not drawn), the T/C under setting [7] was 95 % of control, the T/C under setting [8] was 95 % of control and the T/C under setting [9] is 101 % of control.

For `CCCCCCCCCC(=O)NC(=S)Nc1ccc(C(=O)OCCCC)cc1`, the T/C is 88 % of control under setting [10]; 103 % of control under setting [1]; 94 % of control and 103 % of control under setting [11]; 90 % of control under setting [7]; 86 % of control under setting [12]; 92 % of control and 98 % of control under setting [3]. Besides, the T/C under setting [13] is 90 % of control and 100 % of control; the T/C under setting [8] was 93 % of control; the T/C under setting [5] is 89 % of control and 92 % of control; the T/C under setting [14] is 90 % of control and 91 % of control; the T/C under setting [9] was 93 % of control.

Consider `O=C(O)c1c(Cl)cccc1Br`, for which the T/C under setting [11] was 95 % of control, the T/C under setting [13] is 95 % of control and the T/C under setting [14] is 98 % of control.

For `N#CC1C(C#N)C1C#N` (stereo not drawn), the T/C was 98 % of control under setting [10] and 98 % of control under setting [12].

On to `CC(=O)OC1CCC2(C)C(=CCC3C2CCC2(C)C(C(C)CCC(=O)O)CCC32)C1` (stereo not drawn), for which the T/C reads like this: under setting [1], 95 % of control; under setting [3], 95 % of control; under setting [5], 96 % of control.

As to `S=C(Nc1ccccc1)N1CCC(CCCC2CCN(C(=S)Nc3ccccc3)CC2)CC1`, the T/C under setting [7] is 91 % of control and the T/C under setting [8] is 88 % of control.

With `NCc1ccc(N)cc1`, the T/C under setting [15] was 98 % of control, the T/C under setting [16] is 95 % of control and the T/C under setting [17] was 96 % of control.

Consider `CC12C(=O)OC(=O)C1(C)C1OC2C(Br)C1Br` (stereo not drawn), for which the T/C reads like this: (dose: 25.0 mg/kg/injection, schedule: Q04DX003 (ip), vehicle: saline with Tween-80) 96 % of control; under setting [18], 96 % of control; under setting [7], 93 % of control and 101 % of control.

On to `Cc1ccc(Cl)cc1S`, for which the T/C under setting [15] is 98 % of control, the T/C under setting [16] is 102 % of control and the T/C under setting [17] is 103 % of control.

On to `C=C1CCCCCCCCCCC1O` (stereo not drawn), for which the T/C under setting [7] was 91 % of control, the T/C under setting [8] was 95 % of control and the T/C under setting [9] was 91 % of control.

Turning to `Nc1ccccc1Cl`, the T/C reads like this: (dose: 31.25 mg/kg/injection, schedule: Q01DX009 (ip), vehicle: saline with Tween-80) 95 % of control; (dose: 31.25 mg/kg/injection, schedule: Q04DX003 (ip), vehicle: saline with Tween-80) 97 % of control; (dose: 62.5 mg/kg/injection, schedule: Q01DX009 (ip), vehicle: saline with Tween-80) 91 % of control; (dose: 62.5 mg/kg/injection, schedule: Q04DX003 (ip), vehicle: saline with Tween-80) 101 % of control; (dose: 125.0 mg/kg/injection, schedule: Q01DX009 (ip), vehicle: saline with Tween-80) 93 % of control; (dose: 125.0 mg/kg/injection, schedule: Q04DX003 (ip), vehicle: saline with Tween-80) 101 % of control.

As for `N=C(N)CCCCCCCCC(=N)N`, the T/C is, setting by setting: (dose: 0.78 mg/kg/injection, schedule: Q01DX009 (ip), vehicle: saline) 162 % of control; (dose: 1.56 mg/kg/injection, schedule: Q01DX009 (ip), vehicle: saline) 96 % of control; (dose: 3.12 mg/kg/injection, schedule: Q01DX009 (ip), vehicle: saline) 104 % of control; (dose: 6.25 mg/kg/injection, schedule: Q01DX009 (ip), vehicle: saline) 106 % of control; (dose: 12.5 mg/kg/injection, schedule: Q01DX009 (ip), vehicle: saline) 115 % of control.

Take `CC(C#N)(Nc1ccccc1)c1ccccn1` (stereo not drawn): the T/C was 101 % of control under setting [7], 93 % of control under setting [8] and 89 % of control under setting [9].

Consider `COc1ccc(C2NCCc3cc(OC)c(OC)cc32)cc1OC` (stereo not drawn), for which the T/C (dose: 12.5 mg/kg/injection, schedule: Q01DX009 (ip), vehicle: water) is 98 % of control; the T/C (dose: 25.0 mg/kg/injection, schedule: Q01DX009 (ip), vehicle: water) is 98 % of control; the T/C (dose: 50.0 mg/kg/injection, schedule: Q01DX009 (ip), vehicle: water) was 98 % of control; the T/C (dose: 100.0 mg/kg/injection, schedule: Q01DX009 (ip), vehicle: water) is 106 % of control.

On to `O=P(O)(O)OCC(O)CCl` (stereo not drawn), for which the T/C is, setting by setting: (dose: 100.0 mg/kg/injection, schedule: Q01DX009 (ip), vehicle: saline) 96 % of control; under setting [2], 100 % of control; (dose: 200.0 mg/kg/injection, schedule: Q01DX009 (ip), vehicle: saline) 92 % of control; under setting [4], 91 % of control; under setting [6], 103 % of control.

With `Nc1cccc(CCCCc2ccc(Cl)c(S(=O)(=O)F)c2)c1`, the T/C is 94 % of control under setting [1]; 106 % of control under setting [7]; 97 % of control under setting [3]; 106 % of control under setting [8]; 108 % of control under setting [9].

As for `O=C(C[P+](c1ccccc1)(c1ccccc1)c1ccccc1)c1ccccc1`, the T/C (dose: 25.0 mg/kg/injection, schedule: Q01DX001 (ip), vehicle: Klucel (hydroxypropylcellulose) (HPC)) was 107 % of control; the T/C (dose: 50.0 mg/kg/injection, schedule: Q01DX001 (ip), vehicle: Klucel (hydroxypropylcellulose) (HPC)) was 107 % of control; the T/C (dose: 100.0 mg/kg/injection, schedule: Q01DX001 (ip), vehicle: Klucel (hydroxypropylcellulose) (HPC)) is 96 % of control; the T/C under setting [1] is 103 % of control; the T/C under setting [3] is 97 % of control; the T/C under setting [5] is 103 % of control.

Consider `CCCCCCCCCc1ccc(OCCOCCOCCOCCOCCOCCOCCOCCOCCOC(C)N2CCCC2=O)cc1` (stereo not drawn), for which the T/C reads like this: (dose: 25.0 mg/kg/injection, schedule: Q01DX009 (ip), vehicle: saline with Tween-80) 96 % of control; under setting [18], 108 % of control; under setting [7], 93 % of control.

Consider `Nc1cc(Cl)nnc1Cl`, for which the T/C (dose: 50.0 mg/kg/injection, schedule: Q01DX009 (ip), vehicle: other) was 97 % of control; the T/C (dose: 100.0 mg/kg/injection, schedule: Q01DX009 (ip), vehicle: other) was 103 % of control; the T/C under setting [2] is 98 % of control; the T/C (dose: 200.0 mg/kg/injection, schedule: Q01DX009 (ip), vehicle: other) was 97 % of control; the T/C under setting [4] was 101 % of control.

As to `CCOC(=O)C(=O)c1c[nH]c2ccccc12`, the T/C is, setting by setting: (dose: 100.0 mg/kg/injection, schedule: Q01DX009 (ip), vehicle: saline sonified) 89 % of control; (dose: 200.0 mg/kg/injection, schedule: Q01DX009 (ip), vehicle: saline sonified) 95 % of control; (dose: 400.0 mg/kg/injection, schedule: Q01DX009 (ip), vehicle: saline sonified) 94 % of control.

As for `CC(=O)Nc1nc(C)cs1`, the T/C is 98 % of control under setting [15], 97 % of control under setting [16] and 98 % of control under setting [17].

Consider `O/N=C1/CCCc2ccccc21`, for which the T/C reads like this: under setting [1], 98 % of control; under setting [7], 100 % of control; under setting [3], 101 % of control; under setting [8], 97 % of control; under setting [5], 104 % of control; under setting [9], 100 % of control.

As to `Cc1cc2nc3ccc(=[N+](C)C)cc-3sc2cc1N`, the T/C (dose: 25.0 mg/kg/injection, schedule: Q04DX003 (ip), vehicle: saline) is 109 % of control and the T/C (dose: 50.0 mg/kg/injection, schedule: Q04DX003 (ip), vehicle: saline) is 102 % of control.
